The assay concerns L1210 leukemia ip in BDF1 mice, survival T/C. The assay is described as follows: NCI In Vivo Anticancer Drug Screen. Data for tumor model L1210 Leukemia (intraperitoneal) in B6D2F1 (BDF1) mice. The settings on record: endpoint: mean survival time, higher = longer survival. The essentials:
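Tumor cells were implanted, animals were treated, and survival was followed. The result divides the treated measurement by the vehicle-control measurement.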

The mark [1] stands for this setting: dose: 100.0 mg/kg/injection, schedule: Q01DX001 (ip), vehicle: Klucel (hydroxypropylcellulose) (HPC).
[2] abbreviates: dose: 200.0 mg/kg/injection, schedule: Q01DX001 (ip), vehicle: Klucel (hydroxypropylcellulose) (HPC).
The mark [3] stands for this setting: dose: 400.0 mg/kg/injection, schedule: Q01DX001 (ip), vehicle: Klucel (hydroxypropylcellulose) (HPC).
The mark [4] stands for this setting: dose: 100.0 mg/kg/injection, schedule: Q01DX001 (ip), vehicle: saline.
[5] abbreviates: dose: 200.0 mg/kg/injection, schedule: Q01DX001 (ip), vehicle: saline.
Setting [6] is: dose: 400.0 mg/kg/injection, schedule: Q01DX001 (ip), vehicle: saline.
The mark [7] stands for this setting: dose: 100.0 mg/kg/injection, schedule: Q01DX009 (ip), vehicle: Klucel (hydroxypropylcellulose) (HPC).
The mark [8] stands for this setting: dose: 100.0 mg/kg/injection, schedule: Q04DX003 (ip), vehicle: Klucel (hydroxypropylcellulose) (HPC).
The mark [9] stands for this setting: dose: 200.0 mg/kg/injection, schedule: Q01DX009 (ip), vehicle: Klucel (hydroxypropylcellulose) (HPC).
The mark [10] stands for this setting: dose: 200.0 mg/kg/injection, schedule: Q04DX003 (ip), vehicle: Klucel (hydroxypropylcellulose) (HPC).
[11] abbreviates: dose: 400.0 mg/kg/injection, schedule: Q01DX009 (ip), vehicle: Klucel (hydroxypropylcellulose) (HPC).
Setting [12] is: dose: 400.0 mg/kg/injection, schedule: Q04DX003 (ip), vehicle: Klucel (hydroxypropylcellulose) (HPC).
The mark [13] stands for this setting: dose: 100.0 mg/kg/injection, schedule: Q04DX003 (ip), vehicle: saline.
Setting [14] is: dose: 200.0 mg/kg/injection, schedule: Q04DX003 (ip), vehicle: saline.
The mark [15] stands for this setting: dose: 400.0 mg/kg/injection, schedule: Q04DX003 (ip), vehicle: saline.

Toxic doses and inconclusive results are not listed.

Take `CCCCN(CCCC)CCCN1C(=O)c2ccccc2S1(=O)=O`: the T/C is, setting by setting: (dose: 44.0 mg/kg/injection, schedule: Q01DX Z (ip), vehicle: methylcellulose (MC)) 96 % of control; (dose: 66.0 mg/kg/injection, schedule: Q01DX Z (ip), vehicle: methylcellulose (MC)) 100 % of control; (dose: 100.0 mg/kg/injection, schedule: Q01DX Z (ip), vehicle: methylcellulose (MC)) 96 % of control.
With `O=C(O)c1ccccc1C(=O)c1ccc2cccc(F)c2c1`, the T/C is, setting by setting: under setting [1], 105 % of control; under setting [2], 120 % of control; under setting [3], 100 % of control.
With `NNP(=O)(c1ccccc1)c1ccccc1`, the T/C is, setting by setting: under setting [4], 108 % of control; under setting [5], 102 % of control; under setting [6], 102 % of control.
In the case of `NC(=S)NN=C1CCCCC1`, the T/C was 96 % of control (dose: 5.0 mg/kg/injection, schedule: Q01DX001 (ip), vehicle: carboxymethylcellulose (CMC)); 96 % of control (dose: 10.0 mg/kg/injection, schedule: Q01DX001 (ip), vehicle: carboxymethylcellulose (CMC)); 107 % of control (dose: 20.0 mg/kg/injection, schedule: Q01DX001 (ip), vehicle: carboxymethylcellulose (CMC)).
As to `c1ccc2cc(N=Nc3ccc4ccccc4c3)ccc2c1`, the T/C reads like this: under setting [7], 98 % of control; under setting [8], 95 % of control; under setting [9], 97 % of control; under setting [10], 92 % of control; under setting [11], 102 % of control; under setting [12], 94 % of control.
As for `CCOc1cccnc1/C=N/NC(N)=S`, the T/C (dose: 50.0 mg/kg/injection, schedule: Q01DX001 (ip), vehicle: saline) was 106 % of control; the T/C under setting [4] is 102 % of control; the T/C under setting [5] was 100 % of control; the T/C under setting [6] was 108 % of control.
For `C/C=C/CC1(CCCC)C(=O)NC(=O)NC1=O`, the T/C by setting is: (dose: 75.0 mg/kg/injection, schedule: Q01DX001 (ip), vehicle: saline) 106 % of control; (dose: 150.0 mg/kg/injection, schedule: Q01DX001 (ip), vehicle: saline) 102 % of control.
Take `CCOc1cc(C2=NNc3n[nH]c(=S)n3N2)ccc1O`: the T/C runs as follows: under setting [7], 94 % of control; under setting [8], 96 % of control; under setting [9], 98 % of control; under setting [10], 103 % of control; under setting [11], 97 % of control; under setting [12], 102 % of control.
With `O=C(Cl)C12CCC(CC1)C1CCC2CC1`, the T/C was 86 % of control under setting [13], 92 % of control under setting [14] and 97 % of control under setting [15].
On to `CC(=O)NCS(=O)(=O)O`, for which the T/C reads like this: (dose: 100.0 mg/kg/injection, schedule: Q01DX009 (ip), vehicle: saline) 104 % of control; (dose: 200.0 mg/kg/injection, schedule: Q01DX009 (ip), vehicle: saline) 96 % of control.
`S=C(NP(=S)(NC(=S)OCCN1CC1)NC(=S)OCCN1CC1)OCCN1CC1`: the T/C was 93 % of control (dose: 100.0 mg/kg/injection, schedule: Q01DX001 (ip), vehicle: carboxymethylcellulose (CMC)) and 96 % of control (dose: 200.0 mg/kg/injection, schedule: Q01DX001 (ip), vehicle: carboxymethylcellulose (CMC)).
For the molecule `O=NN(CCCl)C(=O)Nc1cccc([N+](=O)[O-])c1`, the T/C is 152 % of control (dose: 12.0 mg/kg/injection, schedule: Q01DX001 (ip), vehicle: carboxymethylcellulose (CMC)); 156 % of control (dose: 18.0 mg/kg/injection, schedule: Q01DX001 (ip), vehicle: carboxymethylcellulose (CMC)); 176 % of control (dose: 26.0 mg/kg/injection, schedule: Q01DX001 (ip), vehicle: carboxymethylcellulose (CMC)); 174 % of control (dose: 40.0 mg/kg/injection, schedule: Q01DX001 (ip), vehicle: carboxymethylcellulose (CMC)); 91 % of control (dose: 60.0 mg/kg/injection, schedule: Q01DX001 (ip), vehicle: carboxymethylcellulose (CMC)).
On to `O=C(O)c1cc(Cl)nc(Cl)c1`, for which the T/C is 97 % of control under setting [7] and 88 % of control under setting [9].
`COc1ccc(CO)cc1OC`: the T/C under setting [7] is 101 % of control; the T/C under setting [8] was 97 % of control; the T/C under setting [9] is 113 % of control; the T/C under setting [10] is 94 % of control; the T/C under setting [11] is 97 % of control; the T/C under setting [12] is 94 % of control.
In the case of `COc1cccc(N=Cc2ccc(OC(=O)c3ccccc3)c(OC)c2)c1`, the T/C is, setting by setting: under setting [7], 91 % of control; under setting [9], 94 % of control; under setting [11], 92 % of control.
Consider `O=C(O)c1ccc(Cn2ccc(=O)[nH]c2=O)cc1`, for which the T/C by setting is: (dose: 100.0 mg/kg/injection, schedule: Q01DX001 (ip), vehicle: saline with Tween-80) 95 % of control; (dose: 200.0 mg/kg/injection, schedule: Q01DX001 (ip), vehicle: saline with Tween-80) 107 % of control; (dose: 400.0 mg/kg/injection, schedule: Q01DX001 (ip), vehicle: saline with Tween-80) 101 % of control.
Take `O=CNC(Cc1ccc(O)cc1)C(=O)O` (stereo not given): the T/C is, setting by setting: under setting [13], 95 % of control; under setting [14], 91 % of control; under setting [15], 93 % of control.
In the case of `Oc1ccc2ccccc2c1C(c1ccccc1)N1CCOCC1` (stereo not given), the T/C was 88 % of control (dose: 100.0 mg/kg/injection, schedule: Q04DX002 (ip), vehicle: Klucel (hydroxypropylcellulose) (HPC)); 88 % of control (dose: 200.0 mg/kg/injection, schedule: Q04DX002 (ip), vehicle: Klucel (hydroxypropylcellulose) (HPC)); 101 % of control (dose: 400.0 mg/kg/injection, schedule: Q04DX002 (ip), vehicle: Klucel (hydroxypropylcellulose) (HPC)).
Take `OC(CCl)CBr` (stereo not given): the T/C (dose: 6.25 mg/kg/injection, schedule: Q01DX009 (ip), vehicle: saline) is 96 % of control; the T/C (dose: 6.25 mg/kg/injection, schedule: Q04DX003 (ip), vehicle: saline) is 97 % of control; the T/C (dose: 12.5 mg/kg/injection, schedule: Q01DX009 (ip), vehicle: saline) was 96 % of control; the T/C (dose: 12.5 mg/kg/injection, schedule: Q04DX003 (ip), vehicle: saline) is 92 % of control; the T/C (dose: 25.0 mg/kg/injection, schedule: Q01DX009 (ip), vehicle: saline) was 94 % of control; the T/C (dose: 25.0 mg/kg/injection, schedule: Q04DX003 (ip), vehicle: saline) is 93 % of control.
In the case of `C[C@@H]1CCC([C@@H](C)[C@H]2CC[C@H]3[C@@H]4CC[C@H]5C[C@@H](O)CC[C@]5(C)[C@H]4CC[C@]23C)=NC1`, the T/C runs as follows: (dose: 1.56 mg/kg/injection, schedule: Q01DX015 (ip), vehicle: saline) 94 % of control; (dose: 3.13 mg/kg/injection, schedule: Q01DX015 (ip), vehicle: saline) 97 % of control; (dose: 6.25 mg/kg/injection, schedule: Q01DX015 (ip), vehicle: saline) 94 % of control; (dose: 12.5 mg/kg/injection, schedule: Q01DX015 (ip), vehicle: saline) 94 % of control; (dose: 12.5 mg/kg/injection, schedule: Q01DX Z (ip), vehicle: saline) 93 % of control; (dose: 25.0 mg/kg/injection, schedule: Q01DX Z (ip), vehicle: saline) 106 % of control. For the same molecule, the T/C was 93 % of control (dose: 50.0 mg/kg/injection, schedule: Q01DX Z (ip), vehicle: saline); 97 % of control (dose: 100.0 mg/kg/injection, schedule: Q01DX Z (ip), vehicle: saline); 93 % of control (dose: 125.0 mg/kg/injection, schedule: Q01DX001 (ip), vehicle: saline).
As for `N#CC(C#N)=CN`, the T/C reads like this: under setting [1], 105 % of control; under setting [2], 106 % of control; under setting [3], 101 % of control.
